Measured values: publication PMC11574045, “A cofactor-induced repressive type of transcription factor condensation can be induced by synthetic peptides to suppress tumorigenesis” (The EMBO Journal, 2024)
Values joined by “and” are separate entries in the source; they are usually repeats but may differ in a detail not shown here. Identical values can stand only once.

What was measured:
[1] = tested on: MYC / CYR61 promoter-enhancer interactions in HEK293FT cells; assay: Chromatin conformation capture (3C) assay; type: cell-based; conditions: VGLL4-overexpressing HEK293FT cells + 1,6-Hex; three biological replicates
Method: The 3C assay was performed following a protocol described previously ([…] et al, [2007]). Briefly, cells were incubated with 0.05% trypsin for 10 min before detaching. Collected cells were cross-linked with 2% formaldehyde for 10 min, followed by treatment with 0.125 M glycine for 5 min to quench the cross-linking reaction. Cells were then pelleted and incubated with a lysis buffer (10 mM Tris-HCl pH 7.5, 10 mM NaCl, 5 mM MgCl2 and 0.1 mM EGTA) at 4 °C for 15 min. Resulting pelleted nuclei were digested with Hind-III restriction enzyme (NEB) at 37 °C overnight and subsequently ligated with T4 DNA ligase (NEB) at 16 °C for 4 h. Thereafter, the samples were incubated at 65 °C overnight to de-crosslink the protein-DNA complexes and were subjected to phenol-chloroform extraction and ethanol precipitation to obtain the 3C templates. Primers flanking the Hind-III restriction sites located close to TEAD4-targeted gene CYR61 (Xie et al, [2019]) or MYC (Zanconato et al, [2015]) promoter (anchor primers) and enhancers were used to quantitively measure the promoter-enhancer interactions. The primers used are listed in Appendix Table S1.

CTGF mRNA = assay: RT-PCR of TEAD4 target genes; type: cell-based
Method: For RT-PCR, total RNA was isolated from cells using RNA Isolator Total RNA Extraction Reagent (Vazyme) according to the manufacturer’s instructions. The isolated RNA was reverse transcribed into cDNA using HiScpt II (Vazyme). Quantitative RT-PCR was performed using a CFX96^TM Real-Time system (Bio-Rad) and SYBR Green PCR master mix (Yeasen). The fold change in the gene expression was calculated using the comparative Ct method, and three replicates were tested for each cDNA sample. ACTB was used as an internal reference. Transcript copies of TEAD4 were determined by generating standard curves using plasmid DNA (TEAD4). Each experiment was repeated at least three times. The sequences of the primers are listed in Appendix Table S1.

[2] = tested on: CTGF promoter occupancy in HEK293FT cells; assay: ChIP-qPCR; type: cell-based; conditions: VGLL4-overexpressing HEK293FT cells + 1,6-Hex; three biological replicates
Method: ChIP was carried out following a procedure previously described (An et al, [2018]). Briefly, cells were first cross-linked with freshly prepared formaldehyde (final concentration 1.42%) for 15 min, followed by addition of glycine (125 mM) for 5 min at room temperature. After a two-round wash with cold PBS, cells were scraped and collected by centrifuge. Resulting pelleted cells were resuspended in 400 μl of ChIP lysis buffer (50 mM HEPES/KOH, pH 7.5; 140 mM NaCl; 1 mM EDTA; 1% Triton X-100; 0.1% Na-deoxycholate and protease inhibitors) and subjected to sonication with Bioruptor at high power for 15 cycles (30 s on and 30 s off for each cycle) to shear the chromatin. Samples were then further diluted twice with lysis buffer and the diluted samples were centrifuged to clear the supernatants. Meanwhile, eighty microliters of each of the supernatants were directly processed to extract total DNA as whole-cell input. […] Prewashed protein A/G beads (L2118; Santa Cuz) were added into these samples, which were then incubated for another 3 h. These incubated samples were washed five times with ChIP lysis buffer and then mixed with 100 μl of 10% chelex (1421253; Bio-Rad), followed by being boiled for 10 min and centrifuged at 4 °C for 1 min. Resulting supernatants were transferred to new tubes. Subsequently, another 120 μl of MilliQ water were added to each fraction of beads pellet, and the resulting mixtures were vortexed for 10 s, and then centrifuged again to spin down the beads. The supernatants were combined as templates for follow-up qPCR analysis.

GFP-TEAD4 condensates = assay: siRNA screening based on TEAD4 condensate; type: cell-based; conditions: Figure 2B source data; siRNA against the named gene; Z score based analysis
Method: siRNA reagents were obtained from the Dharmacon Human ON-TARGETplus siRNA Smartpool Library (Thermo) as described previously (Tang et al, [2020]). […] Lipofectamine RNAiMAX reagent (Thermo) at a volume of 0.05 μl per well was then added to the siRNA-loaded plates. Subsequently, cells expressing GFP-TEAD4 were seeded into the plate at 2000 cells per well. After subsequent transfection for 48 h, the cells were fixed with 4% PFA at room temperature for 30 min. DAPI was used to identify individual nuclei. The plates were kept at 4 °C in the dark before being analyzed using the Opera system. Twenty focus fields per well were scanned and analyzed. Scrambled siRNA was used as an internal reference on each plate.

HGC-27 cells = assay: siRNA screening based on cell growth; set-up: species or system human; conditions: Figure 2B source data; siRNA against the named gene; Z score based analysis
Method: For screening based on cell growth, HGC-27 cells (2000 per well) were seeded into a 96-well plate overnight. The individual siRNAs targeting 192 BioID-identified genes were then added into each well to a final concentration of 25 nM. After subsequent incubation for 48 h, the cells were analyzed using an ATP-based CellCounting-Lite^TM 2.0 reagent (Vazyme, Nanjing, China) according to the manufacturer’s instructions. The intracellular ATP contents were measured using an EnSight™ Multimode Microplate Reader (Perkin Elmer).

[3] = tested on: GFP-TEAD4 condensates in HEK293FT cells; assay: GFP-TEAD4 condensate imaging, condensed fraction in cells; type: cell-based; conditions: Figure 2D source data, GFP-TEAD4 condensates with co-expressed cofactor, with or without 1,6-Hex, single measurement

Compound	3C interaction promoter-enhance1 (MYC locus) [1]	3C interaction promoter-enhance 4 (MYC locus) [1]	Effect on GLUP-induced CTGF downregulation (CTGF mRNA; GLUP-treated cells with or without 1,6-Hex, mRNA)	CTGF mRNA level (CTGF mRNA; VGLL4-overexpressing HEK293FT cells + 1,6-Hex 0.25% v/v, three biological replicates)	ChIP-qPCR enrichment of CTCF on CTGF promoter [2]	ChIP-qPCR enrichment of H3K27ac on CTGF promoter [2]	ChIP-qPCR enrichment of RNA Pol II on CTGF promoter [2]	Z score of condensed fraction (GFP-TEAD4 condensates)	Z score of cell growth (HGC-27 cells)	Condensed fraction ([3]; replicate 1 of 9) [%]	Condensed fraction ([3]; replicate 2 of 9) [%]	Condensed fraction ([3]; replicate 3 of 9) [%]	Condensed fraction ([3]; replicate 4 of 9) [%]	Condensed fraction ([3]; replicate 5 of 9) [%]	Condensed fraction ([3]; replicate 6 of 9) [%]	Condensed fraction ([3]; replicate 7 of 9) [%]	Condensed fraction ([3]; replicate 8 of 9) [%]	Condensed fraction ([3]; replicate 9 of 9) [%]
OCCCCCCO [1,6-Hex, 1,6-hexanediol]	0.8 and 0.75 and 0.85	0.8 and 0.65 and 0.74	obviously abrogated GLUP-induced downregulation of CTGF	1.31 and 0.86 and 1.18	0.0726 and 0.0717 and 0.0639	0.0982 and 0.0959 and 0.0952	0.1941 and 0.1778 and 0.182											
RCOR3								1.432	0.05778									
VGLL4: transcriptional cofactor protein with two TDU domains binding TEAD4								-4.055	3.062	31.2622	58.3357	38.0997	50.0073	50.0033	46.4819	42.8861	42.8738	35.7201
